Measurements from PMC13095444, “Discovery of RGS2-FBXO44 interaction inhibitors using a cell-based NanoBit assay” (Molecular Pharmacology, 2025).

Key:
RGS2-FBXO44 interaction = biological target: T1, RGS2-FBXO44 interaction (Homo sapiens, UniProt P41220); assay: RGS2-FBXO44 NanoBit assay (HEK-293T RGS2-SmBiT/LgBiT-FBXO44 stable clone #6); format: cell-based
T1 construct: expressed in transfected cells
T1 sequence (P41220 1-211): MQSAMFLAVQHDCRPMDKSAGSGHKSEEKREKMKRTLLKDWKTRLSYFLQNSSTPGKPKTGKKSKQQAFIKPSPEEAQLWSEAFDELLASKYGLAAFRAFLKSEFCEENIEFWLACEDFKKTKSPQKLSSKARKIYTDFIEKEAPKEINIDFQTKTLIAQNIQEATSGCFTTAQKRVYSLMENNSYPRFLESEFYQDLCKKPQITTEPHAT
Experimental: Nano-Glo Live Cell Substrate (LCS) was diluted 1:50 in HBSS to form a 2× stock, and then, 15 μL was added to each well. Plates were shaken on an orbital shaker at 500 rpm for 5 minutes protected from light and then spun down at 1000 rpm for 30 seconds. Plates were incubated at room temperature for 20 minutes, and then, luminescence was detected on a Synergy Neo2 multimode plate reader.
HEK-293T-RGS2-FBXO44 NanoBit cells were treated for 16–18 hours with compound at 100 μM. This relatively high concentration was chosen because of the challenging nature of our assay (intracellular PPI inhibition). Parental HEK-293T cells were used as a negative control. […] Based on these criteria, 97 compounds were identified as hits from our primary screen (6.1% initial hit rate). To confirm hits, the same assay was repeated in triplicate, which delivered 34 compounds that reached the threshold for inhibition in at least 2 replicates with <25% cell toxicity (Fig. 2C; Supplemental Table 1), thus rendering a final hit rate of 2.1%.
Fresh powders of 20 compounds were purchased and reassayed for their ability to inhibit the RGS2-FBXO44 NanoBit signal, using the same assay paradigm as in the primary screen (Fig. 3; Table 1). […] Nevertheless, all compounds were confirmed to inhibit the RGS2-FBXO44 NanoBit signal at this high concentration.
We next assessed the concentration-dependent effect of our 20 hits. Compounds were assayed at concentrations ranging from 500 to 0.01 μM. NanoBit luminescence (relative luminescence units) was normalized to viability (RFU) and presented as a percentage of untreated cells.

RGS4 = biological target: T2, RGS4 (Homo sapiens, UniProt P49798); assay: Cellular thermal shift assay (CETSA), RGS4-HA; format: binding; details: 100 μM overnight (16–18 hours); gradient 40–60 °C; vs DMSO
T2 construct: expressed in transfected cells; host or cells: HEK-293T, transient transfection
Experimental: The cells in 100 mm dishes were harvested by trypsination in reduced serum media and transferred to 15 mL conical tubes. The cells were centrifuged at 300 × g for 3 minutes. Media was removed, and the cell pellet was washed with 10 mL of PBS. The cells were then resuspended in 500 μL of PBS and aliquoted into polymerase chain reaction (PCR) tubes. The cells were then heated in a PCR gradient (40–60 °C) for 3 minutes and then transferred to a 25 °C PCR block for 3 minutes. Following this, cells were immediately flash-frozen using liquid nitrogen. The cells were freeze-thawed 3 times to lyse the cells and then spun down at 20,000 × g for 20 minutes. The supernatant was then added to sample buffer and heated for 5 minutes at 95 °C before SDS-PAGE and western blot analysis.
We next assessed whether the action of compound 10 to inhibit the RGS2-FBXO44 interaction is through direct binding to either protein. […] The cells were lysed and analyzed by western blot to determine melting temperatures (Tm). […] We also assessed the effect of compound 10 on the Tm for RGS4, which is closely related to RGS2 and also subject to proteasomal degradation, however, independent of FBXO44 ([Lee et al, 2005]; [Sjögren et al, 2015]).

T2 sequence (P49798 whole entry, species assumed): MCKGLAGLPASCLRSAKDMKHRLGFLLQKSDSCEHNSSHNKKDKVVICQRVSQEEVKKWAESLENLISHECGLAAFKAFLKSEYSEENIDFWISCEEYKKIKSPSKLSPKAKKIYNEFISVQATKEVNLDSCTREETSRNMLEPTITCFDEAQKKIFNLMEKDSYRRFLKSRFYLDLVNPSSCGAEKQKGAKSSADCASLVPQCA

- Effect on the Tm for RGS4 (RGS4): no significant effect
SMILES: CCC1CCCCN1S(=O)(=O)c1cc(Br)ccc1OC (stereo not drawn) [Compound 10]
- % Inhibition @ 100 μM of RGS2-FBXO44 NanoBit signal (RGS2-FBXO44 interaction; 100 μM, 16–18 hours, fresh powder, luminescence normalized to viability, vs nontreated cells): 71.7∗∗∗∗ %
- IC50 (RGS2-FBXO44 interaction; concentrations 500 to 0.01 μM, RLU normalized to viability (RFU), read-out: IC50 (μM), inhibition of RGS2-FBXO44 NanoBit signal): 19.6 µM
